Results: patent US9932335B2 (priority 2013, dated 2018)
Substitutions are numbered along the chain they refer to. Like-named read-outs stand apart in the source and are kept apart here.

Experiments:
human M1 = molecular target: T1, human M1 (Homo sapiens, UniProt P11229); assay: M1 PAM assay (FLIPR intracellular calcium, CHO human M1); assay type: cell-based
T1 construct: expressed in transfected cells; host or cells: CHO cells
T1 sequence (P11229 1-460): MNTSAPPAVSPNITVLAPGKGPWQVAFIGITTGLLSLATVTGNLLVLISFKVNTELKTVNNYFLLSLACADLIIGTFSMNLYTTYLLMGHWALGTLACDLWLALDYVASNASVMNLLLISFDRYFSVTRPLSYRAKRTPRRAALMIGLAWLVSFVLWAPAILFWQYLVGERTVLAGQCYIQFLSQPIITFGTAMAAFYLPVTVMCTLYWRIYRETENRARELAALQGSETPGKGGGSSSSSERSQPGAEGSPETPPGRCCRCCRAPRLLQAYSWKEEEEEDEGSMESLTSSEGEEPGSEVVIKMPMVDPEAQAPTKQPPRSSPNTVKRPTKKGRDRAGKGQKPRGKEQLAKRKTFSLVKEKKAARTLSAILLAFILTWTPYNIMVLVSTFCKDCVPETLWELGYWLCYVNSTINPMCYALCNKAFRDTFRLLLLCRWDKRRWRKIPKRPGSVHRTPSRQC
Procedure: The assay study the effect of several concentrations of test compounds on basal or acetylcholine-stimulated Ca^2+ levels using FLIPR. CHO human M1 are plated the day before the experiments at 2×10^5 cells/ml in PDL BioCoat 96 well black/clear plate (Becton 35 4640). The cells are grown at 37° C. and 5% CO2 in the following medium: F12 Nut Mix (Gibco 21765), 10% FCS heat inactivated (GIBCO 16000-044), 1% Pen Strep (Gibco, 15140) and 200 μg/ml Geneticin (Gibco 11811). On the day of the experiment, the medium was removed and replaced by 100 μl of dye loading buffer containing Hanks Balanced Salt solution (HBSS, 14065-049, Gibco) with 20 mM HEPES (Gibco 15630-056), 2 mM Probenicid (Sigma P8761), […] (Molecular Probes F-14202), 10% Pluronic acid Molecular Probes P-3000) pH=7.4 and incubated at 37° C. After 60 minutes extracellular dye was removed and the cells were washed five times with FLIPR buffer containing HBSS (Gibco 14065-049) with 20 mM HEPES (Gibco, 15630-056), 2 mM Probenicid (Sigma P8761) pre-warmed at 37° C. using and Ebml cell washer leaving 100 μl of FLIPR buffer in each well. The cell plate and the diluted compounds (1% DMSO final concentration) are placed on the platform of the FLIPR and the door closed. A signal test to check background fluorescence and basal fluorescence signal is performed. Laser intensity is adjusted if necessary. Two minutes preincubation with the diluted test compounds is provide to determine any agonist activity on the M1 receptor by comparison to 30 nM Acetylcholine control. In order to determine any modulator activity the diluted compounds were added to cells and after two minutes preincubation, the EC20 of acetylcholine is added followed by another two minutes preincubation before the measurement of intracellular Ca^2+ with a FLIPR (Molecular Devices).

M1 receptor = molecular target: T2, M1 receptor (Rattus norvegicus, UniProt P08482); assay: M1 PAM assay (FLIPR intracellular calcium), rat; assay type: cell-based
T2 construct: expressed in transfected cells
T2 sequence (P08482 1-460): T1 sequence (P11229 1-460) with A5V, T254S, P309S, R320K, A337G, I413V

[1] = human M1 in CHO cells, modulator activity with EC20 of acetylcholine, FLIPR Ca2+, read-out: EC50 h PAM
[2] = rat, modulator activity with EC20 of acetylcholine, FLIPR Ca2+, read-out: EC50 rat PAM

| SMILES | EC50 (human M1; [1]) | EC50 (M1 receptor; [2]) | EC50 (human M1) | EC50 (M1 receptor) |
| --- | --- | --- | --- | --- |
| Cn1cc(-c2ccc(Cn3cc(C(=O)N[C@H](CO)C(C)(C)C)c4ncccc43)c(F)c2)cn1 [Example 27, 1-[2-Fluoro-4-(1-methyl-1H-pyrazol-4-yl)-benzyl]-1H-pyrrolo[3,2-b]pyridine-3-carboxylic acid ((S)-1-hydroxymethyl-2,2-dimethyl-propyl)-amide] | 126 nM | 355 nM | – | – |
| Cn1cc(-c2ccc(Cn3cc(C(=O)NC4CCCCC4)c4ncccc43)c(F)c2)cn1 [Example 28, N-cyclohexyl-1-(2-fluoro-4-(1-methyl-1H-pyrazol-4-yl)benzyl)-1H-pyrrolo[3,2-b]pyridine-3-carboxamide] | – | – | 283 nM | 521 nM |
| Cn1cc(-c2ccc(Cn3cc(C(=O)Nc4ncccc4CO)c4ncccc43)c(F)c2)cn1 [Example 30, 1-[2-Fluoro-4-(1-methyl-1H-pyrazol-4-yl)-benzyl]-1H-pyrrolo[3,2-b]pyridine-3-carboxylic acid (3-hydroxymethyl-pyridin-2-yl)-amide] | – | – | 82.4 nM | 210 nM |
| Cn1cc(-c2ccc(Cn3cc(C(=O)N[C@H](CO)c4ccccc4)c4ncccc43)c(F)c2)cn1 [Example 32, 1-[2-Fluoro-4-(1-methyl-1H-pyrazol-4-yl)-benzyl]-1H-pyrrolo[3,2-b]pyridine-3-carboxylic acid ((S)-2-hydroxy-1-phenyl-ethyl)-amide] | – | – | 88.7 nM | 277 nM |
| Cn1cc(-c2ccc(Cn3cc(C(=O)NC[C@@H](O)c4ccccc4)c4ncccc43)c(F)c2)cn1 [Example 34, 1-[2-Fluoro-4-(1-methyl-1H-pyrazol-4-yl)-benzyl]-1H-pyrrolo[3,2-b]pyridine-3-carboxylic acid ((S)-2-hydroxy-2-phenyl-ethyl)-amide] | 120 nM | 494 nM | – | – |
| Cn1cc(-c2ccc(Cn3cc(C(=O)Nc4ncccc4O)c4ncccc43)c(F)c2)cn1 [Example 36, 1-[2-Fluoro-4-(1-methyl-1H-pyrazol-4-yl)-benzyl]-1H-pyrrolo[3,2-b]pyridine-3-carboxylic acid (3-hydroxy-pyridin-2-yl)-amide] | 109 nM | 314 nM | – | – |
| Cn1cc(-c2ccc(Cn3cc(C(=O)N[C@H]4COCC[C@@H]4O)c4ncccc43)c(F)c2)cn1 [Example 41, 1-[[2-fluoro-4-(1-methylpyrazol-4-yl)phenyl]methyl]-N-[(3S,4S)-4-hydroxyoxan-3-yl]pyrrolo[3,2-b]pyridine-3-carboxamide] | 30.4 nM | 51 nM | – | – |
| Cc1ccc(Cn2cc(C(=O)N[C@H]3CCCC[C@@H]3O)c3ncccc32)cc1 [Example 43, N-((1S,2S)-2-hydroxycyclohexyl)-1-(4-methylbenzyl)-1H-pyrrolo[3,2-b]pyridine-3-carboxamide] | – | – | 207 nM | 611 nM |
| COc1ccc(Cn2cc(C(=O)N[C@H]3CCCC[C@@H]3O)c3ncccc32)cc1F [Example 44, 1-(3-fluoro-4-methoxybenzyl)-N-((1S,2S)-2-hydroxycyclohexyl)-1H-pyrrolo[3,2-b]pyridine-3-carboxamide] | – | – | 127 nM | 598 nM |
| Cc1ccc(Cn2cc(C(=O)N[C@H]3CCCC[C@@H]3O)c3ncccc32)cc1F [Example 46, 1-(3-fluoro-4-methylbenzyl)-N-((1S,2S)-2-hydroxycyclohexyl)-1H-pyrrolo[3,2-b]pyridine-3-carboxamide] | – | – | 257 nM | 444 nM |
| COc1ccc(Cn2cc(C(=O)N[C@H]3CCCC[C@@H]3O)c3ncccc32)cc1 [Example 47, N-((1S,2S)-2-hydroxycyclohexyl)-1-(4-methoxybenzyl)-1H-pyrrolo[3,2-b]pyridine-3-carboxamide] | – | – | 163 nM | 217 nM |
| O=C(N[C@H]1CCCC[C@@H]1O)c1cn(Cc2ccc(C(F)(F)F)nc2)c2cccnc12 [Example 48, N-((1S,2S)-2-hydroxycyclohexyl)-1-((6-(trifluoromethyl)pyridin-3-yl)methyl)-1H-pyrrolo[3,2-b]pyridine-3-carboxamide] | – | – | 1770 nM | 422 nM |
| O=C(N[C@H]1CCCC[C@@H]1O)c1cn(Cc2ccc(-c3ccccc3)cc2)c2cccnc12 [Example 49, 1-(biphenyl-4-ylmethyl)-N-((1S,2S)-2-hydroxycyclohexyl)-1H-pyrrolo[3,2-b]pyridine-3-carboxamide] | – | – | 300 nM | 512 nM |
| Cn1ncc2cc(Cn3cc(C(=O)N[C@H]4CCCC[C@@H]4O)c4ncccc43)ccc21 [Example 52, N-((1S,2S)-2-hydroxycyclohexyl)-1-((1-methyl-1H-indazol-5-yl)methyl)-1H-pyrrolo[3,2-b]pyridine-3-carboxamide] | – | – | 71.5 nM | 163 nM |
| Cn1cc(-c2ccc(Cn3cc(C(=O)N[C@H]4CCCC[C@@H]4O)c4ncccc43)cc2)cn1 [Example 55, N-((1S,2S)-2-hydroxycyclohexyl)-1-(4-(1-methyl-1H-pyrazol-4-yl)benzyl)-1H-pyrrolo[3,2-b]pyridine-3-carboxamide] | – | – | 11.1 nM | 13.9 nM |
| Cn1cc(-c2ccc(Cn3cc(C(=O)N[C@H]4CCCC[C@@H]4O)c4ncccc43)cn2)cn1 [Example 56, N-((1S,2S)-2-hydroxycyclohexyl)-1-((6-(1-methyl-1H-pyrazol-4-yl)pyridin-3-yl)methyl)-1H-pyrrolo[3,2-b]pyridine-3-carboxamide] | – | – | 34.9 nM | 71 nM |
| O=C(N[C@H]1CCCC[C@@H]1O)c1cn(Cc2ccc(-c3nccs3)cc2)c2cccnc12 [Example 60, N-((1S,2S)-2-hydroxycyclohexyl)-1-(4-(thiazol-2-yl)benzyl)-1H-pyrrolo[3,2-b]pyridine-3-carboxamide] | – | – | 38.2 nM | 126 nM |
| CNC(=O)c1ccc(Cn2cc(C(=O)N[C@H]3CCCC[C@@H]3O)c3ncccc32)cc1 [Example 61, N-((1S,2S)-2-hydroxycyclohexyl)-1-(4-(methylcarbamoyl)benzyl)-1H-pyrrolo[3,2-b]pyridine-3-carboxamide] | – | – | 9.1 nM | 18 nM |
| O=C(NC1CCOCC1)c1cn(Cc2ccc3[nH]ncc3c2)c2cccnc12 [Example 62] | – | – | 428 nM | 325 nM |
| Cn1cc(-c2ccc(Cn3cc(C(=O)NCc4cccnc4)c4ncccc43)c(F)c2)cn1 [Example 64] | – | – | 261 nM | 1060 nM |
| Cn1cc(-c2ccc(Cn3cc(C(=O)NCC4(O)CC4)c4ncccc43)c(F)c2)cn1 [Example 65, 1-(2-fluoro-4-(1-methyl-1H-pyrazol-4-yl)benzyl)-N-((1-hydroxycyclopropyl)methyl)-1H-pyrrolo[3,2-b]pyridine-3-carboxamide] | 315 nM | 1390 nM | – | – |
